Reference: patent US20230127944A1, “BROAD-SPECTRUM CARBAPENEMS” (priority 2019, published 2023)
Converted amounts (≈) assume the structure as drawn.

Columns and labels:
Assay type in all cases: cell-based
[1] = tested on: E. coli ATCC 25922 (wild-type/QC strain); assay: broth microdilution MIC assay, E. coli 25922; settings: Escherichia coli, ATCC25922; read-out: MIC, E. coli 25922
Summary of the method: (§1)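 MIC was scored by eye as the lowest concentration showing no visible growth after 16-20 h at 37 °C. Bacteria grown 3-5 h in divalent-cation-supplemented Mueller-Hinton broth were added at 5×10^5 CFU/mL to 2-fold serial compound dilutions, following CLSI methods.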

[2] = tested on: P. aeruginosa Paeβ-17; assay: broth microdilution MIC assay, P. aeruginosa Paeβ-17; settings: Pseudomonas aeruginosa, read-out: MIC, P. aeruginosa Paeβ-17
Summary of the method: as §1

[3] = tested on: P. aeruginosa ΔmexAB-OprM (an efflux pump knockout); assay: broth microdilution MIC assay, P. aeruginosa ΔmexAB-OprM; settings: Pseudomonas aeruginosa, read-out: MIC, P. aeruginosa ΔmexAB-OprM
Summary of the method: as §1

[4] = tested on: P. aeruginosa ATCC 27853 (wild-type/QC strain); assay: broth microdilution MIC assay, P. aeruginosa 27853; settings: Pseudomonas aeruginosa, ATCC27853; read-out: MIC, P. aeruginosa 27853
Summary of the method: as §1

[5] = tested on: S. aureus USA 600; assay: broth microdilution MIC assay, S. aureus USA600; settings: Staphylococcus aureus; S. aureus USA600 (MRSA); read-out: MIC, S. aureus USA600
Summary of the method: as §1

[6] = tested on: S. aureus USA 300; assay: broth microdilution MIC assay, S. aureus USA300; settings: Staphylococcus aureus; S. aureus USA300 (MRSA); read-out: MIC, S. aureus USA300
Summary of the method: as §1

[7] = tested on: S. aureus ATCC 33591 (methicillin-resistant); assay: broth microdilution MIC assay, S. aureus 33591; settings: Staphylococcus aureus, ATCC33591; S. aureus 33591, methicillin-resistant; read-out: MIC, S. aureus 33591
Summary of the method: as §1

[8] = tested on: P. aeruginosa 35151 (hyper-permeable strain); assay: broth microdilution MIC assay, P. aeruginosa 35151; settings: Pseudomonas aeruginosa, read-out: MIC, P. aeruginosa 35151
Summary of the method: as §1

Row | Compound | MIC [1] [µg/mL] | MIC [2] [µg/mL] | MIC [3] [µg/mL] | MIC [4] [µg/mL] | MIC [5] [µg/mL] | MIC [6] [µg/mL] | MIC [7] [µg/mL] | MIC [8] [µg/mL]
1 | C[C@@H](O)[C@H]1C(=O)N2C(C(=O)O)=C(SC3CN([C@H]4CCC[C@H](N)C4)C3)[C@H](C)[C@H]12 [Example 13, (4R,5S,6S)-3-((1-((1S,3S)-3-aminocyclohexyl)azetidin-3-yl)thio)-6-((R)-1-hydroxyethyl)-4-methyl-7-oxo-1-azabicyclo[3.2.0]hept-2-ene-2-carboxylic acid] | < 1 | 8 to 32 (≈ 20.2 to 80.9 µM) | 1 to 4 (≈ 2.53 to 10.1 µM) | 8 to 32 (≈ 20.2 to 80.9 µM) | 1 to 4 (≈ 2.53 to 10.1 µM) | 1 to 4 (≈ 2.53 to 10.1 µM) | 8 to 32 (≈ 20.2 to 80.9 µM) | < 1
2 | C[C@@H](O)[C@H]1C(=O)N2C(C(=O)O)=C(SC3CN([C@@H]4CC[C@H](NC(=N)N)C4)C3)[C@H](C)[C@H]12 [Example 12, (4R,5S,6S)-3-((1-((1R,3S)-3-guanidinocyclopentyl)azetidin-3-yl)thio)-6-((R)-1-hydroxyethyl)-4-methyl-7-oxo-1-azabicyclo[3.2.0]hept-2-ene-2-carboxylic acid] | < 1 | 8 to 32 (≈ 18.9 to 75.6 µM) | 1 to 4 (≈ 2.36 to 9.44 µM) | 1 to 4 (≈ 2.36 to 9.44 µM) | 1 to 4 (≈ 2.36 to 9.44 µM) | 1 to 4 (≈ 2.36 to 9.44 µM) | 1 to 4 (≈ 2.36 to 9.44 µM) | < 1
3 | C[C@@H](O)[C@H]1C(=O)N2C(C(=O)O)=C(SC3CN(Cc4cnc(N)nc4)C3)[C@H](C)[C@H]12 [Example 22, (4R,5S,6S)-3-((1-((2-aminopyrimidin-5-yl)methyl)azetidin-3-yl)thio)-6-((R)-1-hydroxyethyl)-4-methyl-7-oxo-1-azabicyclo[3.2.0]hept-2-ene-2-carboxylic acid] | < 1 | > 32 | 1 to 4 (≈ 2.47 to 9.86 µM) | 8 to 32 (≈ 19.7 to 78.9 µM) | 1 to 4 (≈ 2.47 to 9.86 µM) | 1 to 4 (≈ 2.47 to 9.86 µM) | 8 to 32 (≈ 19.7 to 78.9 µM) | < 1
4 | C[C@@H](O)[C@H]1C(=O)N2C(C(=O)O)=C(SC3CN(C4CCN(C)CC4)C3)[C@H](C)[C@H]12 [Example 42, (4R,5S,6S)-6-((R)-1-hydroxyethyl)-4-methyl-3-((1-(1-methylpiperidin-4-yl)azetidin-3-yl)thio)-7-oxo-1-azabicyclo[3.2.0]hept-2-ene-2-carboxylic acid] | < 1 | 8 to 32 (≈ 20.2 to 80.9 µM) | 8 to 32 (≈ 20.2 to 80.9 µM) | 8 to 32 (≈ 20.2 to 80.9 µM) | 1 to 4 (≈ 2.53 to 10.1 µM) | 1 to 4 (≈ 2.53 to 10.1 µM) | 8 to 32 (≈ 20.2 to 80.9 µM) | < 1
5 | C[C@@H](O)[C@H]1C(=O)N2C(C(=O)O)=C(SC3CN([C@@H]4CCC[C@H](N)C4)C3)[C@H](C)[C@H]12 [Example 14, (4R,5S,6S)-3-((1-((1R,3S)-3-aminocyclohexyl)azetidin-3-yl)thio)-6-((R)-1-hydroxyethyl)-4-methyl-7-oxo-1-azabicyclo[3.2.0]hept-2-ene-2-carboxylic acid] | < 1 | 8 to 32 (≈ 20.2 to 80.9 µM) | 1 to 4 (≈ 2.53 to 10.1 µM) | 1 to 4 (≈ 2.53 to 10.1 µM) | 1 to 4 (≈ 2.53 to 10.1 µM) | 1 to 4 (≈ 2.53 to 10.1 µM) | 1 to 4 (≈ 2.53 to 10.1 µM) | < 1
6 | C[C@@H](O)[C@H]1C(=O)N2C(C(=O)O)=C(S[C@H]3C[C@H](NC4CCNCC4)C3)[C@H](C)[C@H]12 [Example 38, (4R,5S,6S)-6-((R)-1-hydroxyethyl)-4-methyl-7-oxo-3-(((1R,3R)-3-(piperidin-4-ylamino)cyclobutyl)thio)-1-azabicyclo[3.2.0]hept-2-ene-2-carboxylic acid] | < 1 | 8 to 32 (≈ 20.2 to 80.9 µM) | 1 to 4 (≈ 2.53 to 10.1 µM) | 8 to 32 (≈ 20.2 to 80.9 µM) | 1 to 4 (≈ 2.53 to 10.1 µM) | 1 to 4 (≈ 2.53 to 10.1 µM) | 8 to 32 (≈ 20.2 to 80.9 µM) | < 1
7 | C[C@@H](O)[C@H]1C(=O)N2C(C(=O)O)=C(S[C@H]3C[C@@H](N[C@H]4CC[C@@H](NC(=N)N)CC4)C3)[C@H](C)[C@H]12 [Example 51, (4R,5S,6S)-3-(((1S,3S)-3-(((1S,4R)-4-guanidinocyclohexyl)amino)cyclobutyl)thio)-6-((R)-1-hydroxyethyl)-4-methyl-7-oxo-1-azabicyclo[3.2.0]hept-2-ene-2-carboxylic acid] | < 1 | 8 to 32 (≈ 17.7 to 70.9 µM) | 1 to 4 (≈ 2.21 to 8.86 µM) | 1 to 4 (≈ 2.21 to 8.86 µM) | 1 to 4 (≈ 2.21 to 8.86 µM) | < 1 | 1 to 4 (≈ 2.21 to 8.86 µM) | < 1
8 | C[C@@H](O)[C@H]1C(=O)N2C(C(=O)O)=C(S[C@H]3C[C@H](N[C@@H]4CC[C@@H](N)C4)C3)[C@H](C)[C@H]12 [Example 71, (4R,5S,6S)-3-(((1R,3R)-3-(((1R,3R)-3-aminocyclopentyl)amino)cyclobutyl)thio)-6-((R)-1-hydroxyethyl)-4-methyl-7-oxo-1-azabicyclo[3.2.0]hept-2-ene-2-carboxylic acid] | < 1 | 8 to 32 (≈ 20.2 to 80.9 µM) | 1 to 4 (≈ 2.53 to 10.1 µM) | 8 to 32 (≈ 20.2 to 80.9 µM) | 1 to 4 (≈ 2.53 to 10.1 µM) | 1 to 4 (≈ 2.53 to 10.1 µM) | 8 to 32 (≈ 20.2 to 80.9 µM) | < 1
9 | C[C@@H](O)[C@H]1C(=O)N2C(C(=O)O)=C(S[C@@H]3CCN([C@H]4CC[C@@H](NC(=N)N)CC4)C3)[C@H](C)[C@H]12 [Example 34, (4R,5S,6S)-3-(((R)-1-((1S,4S)-4-guanidinocyclohexyl)pyrrolidin-3-yl)thio)-6-((R)-1-hydroxyethyl)-4-methyl-7-oxo-1-azabicyclo[3.2.0]hept-2-ene-2-carboxylic acid] | < 1 | 8 to 32 (≈ 17.7 to 70.9 µM) | 1 to 4 (≈ 2.21 to 8.86 µM) | 1 to 4 (≈ 2.21 to 8.86 µM) | 1 to 4 (≈ 2.21 to 8.86 µM) | < 1 | 1 to 4 (≈ 2.21 to 8.86 µM) | < 1
10 | C[C@@H](O)[C@H]1C(=O)N2C(C(=O)O)=C(S[C@@H]3CCN(C4CCN(C)CC4)C3)[C@H](C)[C@H]12 [Example 29, (4R,5S,6S)-6-((R)-1-hydroxyethyl)-4-methyl-3-(((R)-1-(1-methylpiperidin-4-yl)pyrrolidin-3-yl)thio)-7-oxo-1-azabicyclo[3.2.0]hept-2-ene-2-carboxylic acid] | < 1 | 8 to 32 (≈ 19.5 to 78.1 µM) | 1 to 4 (≈ 2.44 to 9.77 µM) | 8 to 32 (≈ 19.5 to 78.1 µM) | 1 to 4 (≈ 2.44 to 9.77 µM) | 1 to 4 (≈ 2.44 to 9.77 µM) | 8 to 32 (≈ 19.5 to 78.1 µM) | < 1
11 | C[C@@H](O)[C@H]1C(=O)N2C(C(=O)O)=C(S[C@@H]3CCN(Cc4cnc(N)nc4)C3)[C@H](C)[C@H]12 [Example 24, (4R,5S,6S)-3-(((R)-1-((2-aminopyrimidin-5-yl)methyl)pyrrolidin-3-yl)thio)-6-((R)-1-hydroxyethyl)-4-methyl-7-oxo-1-azabicyclo[3.2.0]hept-2-ene-2-carboxylic acid] | < 1 | > 32 | 1 to 4 (≈ 2.38 to 9.54 µM) | 8 to 32 (≈ 19.1 to 76.3 µM) | 1 to 4 (≈ 2.38 to 9.54 µM) | 1 to 4 (≈ 2.38 to 9.54 µM) | 8 to 32 (≈ 19.1 to 76.3 µM) | < 1
12 | C[C@@H](O)[C@H]1C(=O)N2C(C(=O)O)=C(S[C@H]3C[C@H](N[C@H]4CC[C@H](NC(=N)N)C4)C3)[C@H](C)[C@H]12 [Example 73, (4R,5S,6S)-3-(((1S,3R)-3-(((1S,3S)-3-guanidinocyclopentyl)amino)cyclobutyl)thio)-6-((R)-1-hydroxyethyl)-4-methyl-7-oxo-1-azabicyclo[3.2.0]hept-2-ene-2-carboxylic acid] | < 1 | 1 to 4 (≈ 2.29 to 9.14 µM) | 8 to 32 (≈ 18.3 to 73.1 µM) | 1 to 4 (≈ 2.29 to 9.14 µM) | 1 to 4 (≈ 2.29 to 9.14 µM) | 1 to 4 (≈ 2.29 to 9.14 µM) | 8 to 32 (≈ 18.3 to 73.1 µM) | < 1
13 | C[C@@H](O)[C@H]1C(=O)N2C(C(=O)O)=C(SC3CN(CC4CCN(C(=N)N)CC4)C3)[C@H](C)[C@H]12 [Example 26, (4R,5S,6S)-3-((1-((1-carbamimidoylpiperidin-4-yl)methyl)azetidin-3-yl)thio)-6-((R)-1-hydroxyethyl)-4-methyl-7-oxo-1-azabicyclo[3.2.0]hept-2-ene-2-carboxylic acid] | < 1 | 8 to 32 (≈ 18.3 to 73.1 µM) | < 1 | 1 to 4 (≈ 2.29 to 9.14 µM) | 1 to 4 (≈ 2.29 to 9.14 µM) | 1 to 4 (≈ 2.29 to 9.14 µM) | 1 to 4 (≈ 2.29 to 9.14 µM) | < 1
14 | C[C@@H](O)[C@H]1C(=O)N2C(C(=O)O)=C(S[C@H]3C[C@H](N[C@H]4CC[C@H](N)CC4)C3)[C@H](C)[C@H]12 [Example 59, (4R,5S,6S)-3-(((1R,3R)-3-(((1R,4R)-4-aminocyclohexyl)amino)cyclobutyl)thio)-6-((R)-1-hydroxyethyl)-4-methyl-7-oxo-1-azabicyclo[3.2.0]hept-2-ene-2-carboxylic acid] | < 1 | 8 to 32 (≈ 19.5 to 78.1 µM) | 1 to 4 (≈ 2.44 to 9.77 µM) | 8 to 32 (≈ 19.5 to 78.1 µM) | 8 to 32 (≈ 19.5 to 78.1 µM) | 1 to 4 (≈ 2.44 to 9.77 µM) | 1 to 4 (≈ 2.44 to 9.77 µM) | < 1
15 | C[C@@H](O)[C@H]1C(=O)N2C(C(=O)O)=C(SC3CN([C@H]4C[C@H](CN)C4)C3)[C@H](C)[C@H]12 [Example 2, (4R,5S,6S)-3-((1-((1r,3R)-3-(aminomethyl)cyclobutyl)azetidin-3-yl)thio)-6-((R)-1-hydroxyethyl)-4-methyl-7-oxo-1-azabicyclo[3.2.0]hept-2-ene-2-carboxylic acid] | < 1 | > 32 | 1 to 4 (≈ 2.62 to 10.5 µM) | 8 to 32 (≈ 21 to 83.9 µM) | 1 to 4 (≈ 2.62 to 10.5 µM) | 1 to 4 (≈ 2.62 to 10.5 µM) | 8 to 32 (≈ 21 to 83.9 µM) | < 1
